Measured values as given in ChEMBL document CHEMBL3507680, “University of Dundee, Gates Library screen for HepG2 cell viability”.

Assay: Human HepG2 cell viability assay in 384 well format
Type: toxicity, cell-based
Design: dose 125 nL, time 70.5 hour; concentration not given beside the values
Settings: HepG2 cells, read-out: Inhibition

COc1ccc(CC(C)Nc2cccc(F)c2)cc1 (stereo unspecified)
cytotoxicity at 70.5 h: -1.11%

Cc1csc(CN(C)C(=O)C2CCC(=O)N(CCN(C)C)C2)n1 (stereo unspecified)
cytotoxicity at 70.5 h: -3.99%

Cc1ccccc1-n1cc(CNC(=O)CC2C(=O)NCCN2C)cn1 (stereo unspecified)
cytotoxicity at 70.5 h: -1.91%

O=C(c1cn(Cc2ccc(Cl)cc2)nn1)N1CCCO1
cytotoxicity at 70.5 h: -10.9%

c1ccc(-c2nc3c(c(NCc4n[nH]c5c4CCC5)n2)CCNC3)cc1
cytotoxicity at 70.5 h: 12.6%

Cc1cc(NCCc2c[nH]cn2)nc(-c2cccnc2)n1
cytotoxicity at 70.5 h: -6.06%

CC(=O)c1ccc(C(=O)NCc2cccnc2N2CCCC(O)C2)s1 (stereo unspecified)
cytotoxicity at 70.5 h: -14.1%

CC1(CCC(=O)N2CCC(n3cc(C4(O)CCCC4)nn3)CC2)CC1
cytotoxicity at 70.5 h: 22.5%

C[C@@H]1CN(C(=O)CCc2nncn2C)C[C@@]1(O)C1CCC1
cytotoxicity at 70.5 h: -2.96%

Cc1ccc(OC[C@@H]2CNC[C@H](C(=O)NCC3CCCO3)C2)cn1 (stereo partly specified)
cytotoxicity at 70.5 h: -1.9%

O=C(Cc1ccc2c(c1)OCO2)N[C@@H]1CCNC[C@H]1O
cytotoxicity at 70.5 h: -3.71%

COc1ccc(-c2noc(Cn3cnc(C)c3)n2)c(OC)c1OC
cytotoxicity at 70.5 h: -0.844%

CC(C)=CCC1(C(=O)O)CCCN(c2ccnc(N)n2)C1 (stereo unspecified)
cytotoxicity at 70.5 h: 17%

NCc1cc(NCC(c2ccccn2)N2CCOCC2)ncn1 (stereo unspecified)
cytotoxicity at 70.5 h: -6.83%

CCn1cc(CN2CCC(C3CCN(C)CC3)CC2)cc1C#N
cytotoxicity at 70.5 h: -1.33%

OCC1CCCCN1Cc1nc(Cc2cccc(F)c2)no1 (stereo unspecified)
cytotoxicity at 70.5 h: -12.1%

CCn1cc(CN2C[C@H]3CC[C@@H]2CN(C(=O)c2cnccn2)C3)cn1
cytotoxicity at 70.5 h: -5.14%

Clc1ccc(-n2cnnc2CCCN2CCOCC2)cc1
cytotoxicity at 70.5 h: 1.11%

CCn1c(C2CCCN(Cc3cc(F)ccc3OC)C2)nn(C)c1=O (stereo unspecified)
cytotoxicity at 70.5 h: -9.41%

O=C1CC2(CCN(c3nccc(-c4cc(C(=O)O)ccn4)n3)CC2)CN1
cytotoxicity at 70.5 h: -8.17%

CC(C)=CCN1CCN(S(=O)(=O)c2cn(C)cn2)[C@H]2CS(=O)(=O)C[C@H]21
cytotoxicity at 70.5 h: 48.8%

Cc1nc(NCc2noc(C3CCCO3)n2)c2sccc2n1 (stereo unspecified)
cytotoxicity at 70.5 h: 31.3%

Nc1ncccc1CN1CCOCC1CC(=O)NCc1ccccn1 (stereo unspecified)
cytotoxicity at 70.5 h: 19.3%

CC(C)N(C(=O)N1CCn2cncc2C1)C(C)C
cytotoxicity at 70.5 h: 1.59%

O=C(O)c1cccc(C2CCCN(S(=O)(=O)C3CC3)C2)c1 (stereo unspecified)
cytotoxicity at 70.5 h: -10.8%

CCOc1ccccc1-n1c(CNC)n[nH]c1=O
cytotoxicity at 70.5 h: -2.54%

Cn1c(CCNC(=O)C2CCCN(C3CCOCC3)C2)n[nH]c1=O (stereo unspecified)
cytotoxicity at 70.5 h: -1.23%

Cc1ccccc1CN1CCC(CNC(=O)Cn2cncn2)CC1
cytotoxicity at 70.5 h: 13.8%

O=C(CCCc1cn[nH]c1)N1C[C@H](CO)C[C@H](CN2CCCC2)C1
cytotoxicity at 70.5 h: -5.76%

CCC(=O)Nc1cccc(C(=O)NCCC2=CSC3=NCCCN23)c1
cytotoxicity at 70.5 h: -7.59%

Cc1nnc(CN(CCc2ccccc2)C2CCN(C)CC2)s1
cytotoxicity at 70.5 h: -13.6%

O=C1O[C@@H]2CN(Cc3ccccc3F)C[C@@H]2N1CCCN1CCOCC1
cytotoxicity at 70.5 h: 8.16%

CCN1CCN(C[C@@H]2CN(c3ncccc3C(F)(F)F)C[C@@H]2CO)CC1
cytotoxicity at 70.5 h: -5.49%

Cc1ccc(SCCCNC(=O)c2cn([C@H]3CC[C@@H](N)CC3)nn2)cc1
cytotoxicity at 70.5 h: 20.6%

CCc1nnc(NC(=O)c2ccc(C3CCCN3CC(C)C)s2)s1 (stereo unspecified)
cytotoxicity at 70.5 h: -2.96%

Cc1nc[nH]c1CN1C[C@@H]2CC[C@H](C1)N(C(=O)CCc1cccnc1)C2
cytotoxicity at 70.5 h: -11.7%

c1ccc2c(c1)CN(c1ncnc3c1CCNC3)CCO2
cytotoxicity at 70.5 h: -5.38%

CCc1ccc(CN2CCN(CCOC)[C@@H]3CS(=O)(=O)C[C@@H]32)cc1
cytotoxicity at 70.5 h: 1.39%

O=c1c2sccc2ncn1Cc1cc(C2CC2)[nH]n1
cytotoxicity at 70.5 h: -8.84%

N#Cc1cccnc1N1CCCC(CO)(Cc2ccc(F)cc2)C1 (stereo unspecified)
cytotoxicity at 70.5 h: -5.86%

COc1ccnc(CN2CCCC(CCc3ccc(F)cc3)C2)c1OC (stereo unspecified)
cytotoxicity at 70.5 h: 2.04%

COc1cccc(F)c1-c1nc2c([nH]1)c(C1CC1)nn2C
cytotoxicity at 70.5 h: 10.5%

CN(C)C[C@@H]1CN(C2CCN(c3ccccc3Cl)CC2)C[C@@H]1CO
cytotoxicity at 70.5 h: -14.4%

CSCC(=O)N1CCC(Oc2cccc(C)c2)CC1
cytotoxicity at 70.5 h: -7.4%

COc1ccccc1-c1ncc(CN2CCCC[C@H](N(C)C)C2)s1
cytotoxicity at 70.5 h: 4.63%

O=S(=O)(NCCn1cc(C2CCCNC2)nn1)c1ccc(Cl)cc1 (stereo unspecified)
cytotoxicity at 70.5 h: -9.08%

C=C(C)COc1ccccc1C(=O)N1CCC2(CC1)CN(C)CCN2C
cytotoxicity at 70.5 h: -11.5%

O=C(O)CCc1cc2n(n1)CCCN(C(=O)c1ccc(Cl)s1)C2
cytotoxicity at 70.5 h: -22.4%

CCCn1ncc(C(=O)N2CCN(C3CCSCC3)CC2)c1C
cytotoxicity at 70.5 h: 2.68%

COC(=O)CNCC1(O)CCCN(Cc2cccc(F)c2F)C1=O (stereo unspecified)
cytotoxicity at 70.5 h: -0.438%

CC(C)n1cc(C(=O)N2CCC(n3cc(C(C)(C)C)nn3)CC2)cn1
cytotoxicity at 70.5 h: -12.1%

COc1c(C)cc(C(C(=O)O)N(C)Cc2ccn[nH]2)cc1C (stereo unspecified)
cytotoxicity at 70.5 h: -3.26%

Cc1nc(CN(C)C(=O)c2cc(C)sc2NC(=O)C(C)(C)C)no1
cytotoxicity at 70.5 h: -11.2%

CC(C)SCC(=O)N1CCCn2nc(C(=O)Nc3ccccc3)cc2C1
cytotoxicity at 70.5 h: 6.99%

COCCN(Cc1cnn(C)c1)C(=O)C1COc2c(cccc2OC)C1 (stereo unspecified)
cytotoxicity at 70.5 h: 0.35%

Cc1cc(C)c2c(NCCC3(O)CCCC3)ncnc2n1
cytotoxicity at 70.5 h: -6.61%

CC1CCCN1Cc1cccc(C(=O)Nc2ccc3c(c2)CCC3=O)c1 (stereo unspecified)
cytotoxicity at 70.5 h: 5.96%

Cc1ccnn1CC(=O)N1CCCN(C2Cc3ccccc3C2)CC1
cytotoxicity at 70.5 h: -14.5%

Cc1nn2cc(CCNC(=O)c3cc(C(C)C)nn3C)nc2s1
cytotoxicity at 70.5 h: 6.04%

COCCn1ccnc1C1CCCN(c2cnccn2)C1 (stereo unspecified)
cytotoxicity at 70.5 h: 15.5%

CC(C)NS(=O)(=O)c1cc(C(=O)O)cc(-c2ccccc2CO)c1
cytotoxicity at 70.5 h: -3.6%

O=C(NCCCO)C1(N2CCCCC2)Cc2ccccc2C1
cytotoxicity at 70.5 h: -10.2%

CC(=O)c1ccc(C(=O)N(C)Cc2nc(-c3ccccn3)no2)s1
cytotoxicity at 70.5 h: 8.57%

Cc1ccc(Oc2ncccc2CNC(=O)C2COC(=O)N2)c(F)c1F (stereo unspecified)
cytotoxicity at 70.5 h: -11.2%

CCc1[nH]c2c(CNC(=O)C3CCN(C)C3)cc(C)cc2c1C (stereo unspecified)
cytotoxicity at 70.5 h: -8.68%

C=C(C)COc1ccc(C(=O)N(C)C(C)c2ccon2)cc1 (stereo unspecified)
cytotoxicity at 70.5 h: -9.63%

CN(Cc1cc2n(n1)CCCNC2)Cc1n[nH]c2c1CCC2
cytotoxicity at 70.5 h: -13.3%

O=C(NCc1csc(Cc2ccccc2)n1)C1NCCc2[nH]cnc21 (stereo unspecified)
cytotoxicity at 70.5 h: -2.44%

CN(Cc1cc2n(n1)CCCN(C(=O)N1CCCC1)C2)Cc1nccs1
cytotoxicity at 70.5 h: 24.4%

O=C(Cc1ccncc1)N(CCO)CCSc1ccc(Cl)cc1
cytotoxicity at 70.5 h: -12.1%

CCOc1ccccc1CCN1Cc2ncccc2C1=O
cytotoxicity at 70.5 h: 3.15%

O=C(C1CC1)N1CCN(C(=O)CSc2ccccn2)[C@H]2CS(=O)(=O)C[C@H]21
cytotoxicity at 70.5 h: 24%

Cc1cccc(CN2CCC(NS(C)(=O)=O)CC2)n1
cytotoxicity at 70.5 h: -8.65%

CCOCCC(=O)N1CCCCC1CCn1cccn1 (stereo unspecified)
cytotoxicity at 70.5 h: -6.8%

CC(c1nccs1)N(C)Cc1ccc(CCC(C)(C)O)cc1 (stereo unspecified)
cytotoxicity at 70.5 h: 0.285%

CN1CCN(S(=O)(=O)N2CCCCC2CCc2ccc(O)cc2)CC1 (stereo unspecified)
cytotoxicity at 70.5 h: -4.09%

CCC(=O)c1ccc(OCC(=O)NC(C)Cc2cc(C)n[nH]2)cc1 (stereo unspecified)
cytotoxicity at 70.5 h: -8.59%

CC(C)Oc1ccccc1-c1cc(CN)ccc1F
cytotoxicity at 70.5 h: 5.05%

Cc1ccc(NC(=O)CNC(C)CN2CCCCC2)c(F)c1 (stereo unspecified)
cytotoxicity at 70.5 h: 6.42%

O=C(O)CCc1cc2n(n1)CCN(Cc1ccc3[nH]ccc3c1)C2
cytotoxicity at 70.5 h: -2.66%

CCn1nc(C)c(CN(CCOC)C(=O)c2ccc(=O)[nH]n2)c1C
cytotoxicity at 70.5 h: -4.87%

c1ccc2c3c([nH]c2c1)CN(Cc1cc2n(n1)CCNC2)CC3
cytotoxicity at 70.5 h: 21.1%

CN1CCN(C)C2(CCN(Cc3ccc(C4CCCO4)s3)CC2)C1 (stereo unspecified)
cytotoxicity at 70.5 h: -3.28%

CCn1cc(Cn2cc(-c3cccc(C(C)N(C)C)c3)nn2)cn1 (stereo unspecified)
cytotoxicity at 70.5 h: -6.09%

COCCNc1cc(-c2ccccc2C(N)=O)c2cc[nH]c2n1
cytotoxicity at 70.5 h: -10.4%

Cc1ccccc1N1CCN(C2CCCN(C(=O)CCC(C)C)C2)CC1 (stereo unspecified)
cytotoxicity at 70.5 h: -0.359%

COCCN(C)C[C@@H]1CN(C(=O)c2ccc(OC)c(F)c2)C[C@@H]1CO
cytotoxicity at 70.5 h: -7.53%

CCN(CCSc1ccccc1)C(=O)c1cn([C@H]2CC[C@@H](N)CC2)nn1
cytotoxicity at 70.5 h: -11.7%

NCC1CCCCN1Cc1cc(O)c2cccc(F)c2n1 (stereo unspecified)
cytotoxicity at 70.5 h: 21.6%

CN(C)Cc1nc(C(=O)N2CCCC(COc3ccc(F)cc3)C2)cs1 (stereo unspecified)
cytotoxicity at 70.5 h: -7.27%

CCN1CCC(CC(=O)NC[C@H]2CCc3ccccc3O2)CC1
cytotoxicity at 70.5 h: -8.77%

CC1CCc2n[nH]c(C(=O)N3CCc4c(nc(N(C)C)[nH]c4=O)C3)c2C1 (stereo unspecified)
cytotoxicity at 70.5 h: -13.8%

Cc1nn(CC(=O)N(C)Cc2nncn2C(C)C)c(=O)c2ccccc12
cytotoxicity at 70.5 h: -9.91%

N[C@H]1CC[C@@H](n2cc(C(=O)N[C@H]3CCCc4ccccc43)nn2)CC1
cytotoxicity at 70.5 h: -10.4%

COc1ccc(CCNCc2ccco2)cc1OC
cytotoxicity at 70.5 h: -6.05%

Cc1cccc(CN(C(=O)CS(C)(=O)=O)C(C)C)c1
cytotoxicity at 70.5 h: -2.96%

Cc1cc(C(=O)NCc2cccnc2N2CCCC(O)C2)c(C)o1 (stereo unspecified)
cytotoxicity at 70.5 h: -8.63%

CN(CCCc1cnn(C)c1)C(=O)Nc1cccc2[nH]ncc12
cytotoxicity at 70.5 h: -15.7%

CN(C)S(=O)(=O)N1CC[C@]2(O)CCN(Cc3cccc(F)c3)C[C@@H]2C1
cytotoxicity at 70.5 h: -6.74%

Cc1c[nH]c(CN(C)C(=O)C(C)(C)NC(=O)c2cccs2)n1
cytotoxicity at 70.5 h: -19.9%

O=C(O)C1(Cc2ccc(Cl)cc2)CCN(c2ncccc2F)CC1
cytotoxicity at 70.5 h: -4.45%

CCCn1c(C)c(CC(=O)NCCNC(C)=O)c2c1CC(C)(C)CC2=O
cytotoxicity at 70.5 h: 1.34%

Cc1c(C(=O)N2CCC(O)(CN(C)C)C2)c2cc(O)ccc2n1C (stereo unspecified)
cytotoxicity at 70.5 h: -9.59%

CSCCc1nc(C(C)C)nn1-c1ccncc1C
cytotoxicity at 70.5 h: -12.8%

Cc1cc(NCCc2nnc(N)s2)nc(-c2cccnc2)n1
cytotoxicity at 70.5 h: -6%

CCCN1CCC(Cc2noc(-c3cccnc3OC)n2)CC1
cytotoxicity at 70.5 h: 2.25%

O=C(c1cnc(O)cn1)N1C[C@@H]2CC[C@H](C1)N(Cc1ccccc1)C2
cytotoxicity at 70.5 h: -0.665%

Cc1cc(CNC(=O)CCCN2CCCCC2)n(C)n1
cytotoxicity at 70.5 h: 12.2%

Cc1cc(C)cc(N2CCN(C(=O)C3CN(C)C(=O)N3)CC2=O)c1 (stereo unspecified)
cytotoxicity at 70.5 h: -9.45%

CC(NC(=O)c1cccc(CCC(C)(C)O)c1)c1nnc(N)s1 (stereo unspecified)
cytotoxicity at 70.5 h: 30.7%

Cn1c(C2CCCN2C(=O)c2cn(CCN)nn2)nc2ccccc21 (stereo unspecified)
cytotoxicity at 70.5 h: -15.7%
